Where a name gives a salt, the structure may show the parent alone. Read-outs that look alike come from different tables or passages of the source.
How the values were obtained:
human platelets = test: Inhibition of collagen-induced aggregation, washed aequorin-loaded platelet suspension; assay type: cell-based; conditions: for IC50: Homo sapiens, Platelet, collagen-induced aggregation (n = 4), HEPES-buffered saline, 1.0 mM CaCl2, read-out: Ia50 ± S.E. Collagen-induced
Protocol: (§1) Procedure for Cytosolic Ionized Calcium Determination. The basic procedure of Yamaguchi, et al. (Thromb. Res., Vol. 44, Pages 165-174, 1986) was followed. Blood was collected from six blood donors, aged 24-38 years, who had fasted overnight and affirmed abstinence from alcohol, caffeine and medications of any kind for a period of at least one week prior to donation. […] Platelets were collected (800 g, 15 min), resuspended in and washed (800 g, 15 min) with HEPES-buffered saline (140 mM NaCl, 2.7 mM KCl, 0.1% bovine albumin, 0.5% glucose, 3.8 mM HEPES, pH 7.6) with EGTA (5 mM) and PGE1 (1 μM). The platelet pellet was resuspended in 90 μl of the same buffer and added to 20μl of 3 mg/ml aequorin solution in a 1.5 ml Eppendorf centrifuge tube. Six 1 μl aliquots of DMSO were added at 90 second intervals with brief, gentle mixing on a Vortex mixer and the platelet suspension was incubated 2 minutes after the last addition. One ml of HEPES-buffered saline was added, gently mixed, and again incubated for 2 minutes. The platelets were pelleted (1000 g, 30 sec), resuspended in HEPES-buffered saline to which was added either 1 mM Mg Cl2, (calcium-free buffer) or 1 mM Mg Cl2 and 1 mM Ca Cl2 (calcium buffer), depending on the experiment. The platelet count was adjusted to 3-4×10^5 platelets/μl.
(§2) The Platelet Ionized Calcium Aggregometer (Chrono-Log Corp., Ltd., Havertown, Pa.) was used to obtain simultaneous aggregation and luminescence data under the following experimental conditions: (1) platelet suspension, 1 ml, was equilibrated at 37° C. with stirring at 1100 rpm; (2) 100 μl (1.2 μg) of fibrinogen was added; (3) the vehicle (95% ethanol) or the test compound in vehicle was added; (4) when needed, 10 μl of the desired concentration of EGTA was added 30 seconds prior to addition of the agonist; then (5) the agonist (Collagen, 5 μg or 20 μg) was added and the time noted. At one minute after addition of the agonist in Channel 1, a platelet sample containing fibrinogen in Channel 2 was lysed with 10 μl of a 1:1 solution of Triton X-100 (final concentration 0.005%) 10 mM CaCl2 (final concentration 0.5 mM). Treated and control […] data were corrected for time dependent decay of fluorescence using data from the untreated lysed controls.
(§3) Normally 4 compound-treated samples (at 4 different concentrations) interspersed with 3 control samples were evaluated at 4.5 minute intervals starting 18-23 minutes after the DMSO treatment. The Ia50 values were calculated as described earlier. The compound concentrations effecting 50% inhibition (Ica50) of collagen-induced cytosolic ionized calcium values was determined by linear regression analysis.
Compounds I-rac, (+)-I,(IC) and (-)-I(IA) were evaluated. The Ia50 (collagen-induced aggregation) and Ica50 (compound concentration required to inhibit by 50% the collagen-induced rise in cytosolic ionized calcium)values determined with platelet suspensions in HEPES-buffered saline containing 1.0 mM CaCl2 were as follows: […]

[1] = tested on: cytosolic ionized calcium in human platelets; test: Inhibition of collagen-induced rise in cytosolic ionized calcium (aequorin luminescence); assay type: cell-based; conditions: for IC50: 1mM [Ca2+]o (n = 4), read-out: Ica50 ± S.E. Collagen-induced (50% inhibition of collagen-induced rise in cytosolic ionized calcium)
Protocol: as §1, §2, §3
Compounds I-rac, (+)-I,(IC) and (-)-I(IA) were evaluated. The Ia50 (collagen-induced aggregation) and Ica50 (compound concentration required to inhibit by 50% the collagen-induced rise in cytosolic ionized calcium)values determined with platelet suspensions in HEPES-buffered saline containing 1.0 mM CaCl2 were as follows:
Collagen-stimulation of platelets suspended in media containing 1.0 mM of Ca^2+ (FIG. 13) or 1.0 mM (FIG. 14A) or 2.0 mM (FIG. 14B) EGTA (a calcium chelator) gave […] cytosolic ionized calcium peak (aequorin-indicated luminescence). Contrarily, two phases of Ca^2+ mobilization were observed when aequorin-loaded human platelets suspended in a medium containing 0.1 mM EGTA were stimulated with collagen (FIG. 14, designation D). The first corresponded to platelet shape change and the second peak to aggregation. […] The platelet suspension (1.0 ml) was pre-incubated with 1.0 μl of (A) 95% ethanol, (B) a solution of Compound I (14.59 μM) in 95% ethanol, or (C) a solution of Compound I (23.87 μM) in 95% ethanol. Collagen (20 μg) was added at time indicated by the arrows. Luminescence was again recorded at a gain of 0.5. […] Accordingly, the stereo-selective inhibitory properties of the compounds of the present invention appear to be mediated through the inhibition of [Ca^2+ ].

SMILES | IC50 (human platelets) [µM] | Effect on platelet shape change peak and aggregation peak of Ca2+ mobilization ([1]; 0.1 mM EGTA, collagen 20 μg, Compound I 14.59 μM or 23.87 μM (FIG. 15)) | IC50 ([1]; Homo sapiens, Platelet, collagen-induced) [µM] | Potency in inhibiting aggregation relative to (-)-I (human platelets; collagen as agonist, in vitro) [times] | IC50 ([1]; collagen-induced, listed as IC (+)-I, dihydrobromide) [µM] | Potency in inhibiting the rise of cytosolic ionized calcium compared to racemic I, I-A and IB ([1]; collagen-induced, Ca2+-containing medium)
CCN(CC)C(=O)C1CCCN(Cc2ccc(CN3CCCC(C(=O)N(CC)CC)C3)cc2)C1 (racemic) [Compound I, α-α'-Bis[3-(N,N-diethyl-carbamoyl)piperidino]-p-xylene dihydrobromide] | 20.2 | inhibited both the platelet shape change peak and the aggregation peak | 21.2 | – | – | –
CCN(CC)C(=O)C1CCCN(Cc2ccc(CN3CCCC(C(=O)N(CC)CC)C3)cc2)C1 (single isomer, unassigned) [IC, α-α'-Bis(3-N,N-diethylcarbamoyl)piperidino]-p-xylene dihydrobromide] | 10.7 ± 2.7 | – | – | 18 | 3.6 ± 1.2 | much more potent

— US5219867A, “Platelet aggregation inhibitory agents” (priority 1992, dated 1993)
